# Tests used:
# Assay in all cases: relative viability (nuclei count vs DMSO), 5 days (fraction); higher = more cells survive
# [1] = compound: O=C(/C=C/c1cccnc1)NCCCCC1CCN(C(=O)c2ccccc2)CC1 [Daporinad] + NC(=O)Nc1cc(-c2cccc(F)c2)sc1C(=O)N[C@H]1CCCNC1 [AZD7762] (partner 0.2 µM)
# Method in brief: (§1)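 After 5 days of treatment, lung cancer cells in 1536-well plates were fixed and stained in a single step (final 0.05% Triton X-100, 1% formaldehyde, 1 ug/ml Hoechst) and their nuclei counted on 4× images. Treatment had been applied by pin tool the day after seeding as one drug alone or as a fixed anchor-drug dose with five library-drug doses (not always all listed) in √10 steps. Relative viability is the nuclei count of treated wells divided by that of vehicle wells, and values are medians of duplicate plates.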
# [2] = compound: COc1cc(Nc2ncc(F)c(Nc3ccc4c(n3)NC(=O)C(C)(C)O4)n2)cc(OC)c1OC [R406] + CCNC(=O)c1noc(-c2cc(C(C)C)c(O)cc2O)c1-c1ccc(CN2CCOCC2)cc1 [Luminespib] (partner 0.01 µM)
# Method in brief: as §1
# [3] = compound: O=C(/C=C/c1cccnc1)NCCCCC1CCN(C(=O)c2ccccc2)CC1 [Daporinad] + COc1cccc2cc(-c3nc([C@H]4CC[C@H](C(=O)O)CC4)n4ncnc(N)c34)[nH]c12 [OSI-027] (partner 0.5 µM)
# Method in brief: as §1
# [4] = compound: COc1cc(Nc2ncc(F)c(Nc3ccc4c(n3)NC(=O)C(C)(C)O4)n2)cc(OC)c1OC [R406] + CS(=O)(=O)N1CCN(Cc2cc3nc(-c4cccc5[nH]ncc45)nc(N4CCOCC4)c3s2)CC1 [Pictilisib] (partner 1 µM)
# Method in brief: as §1
Cell Line,relative viability ([1]; first compound 0.0005 µM),relative viability ([1]; first compound 0.001581 µM),relative viability ([1]; first compound 0.005 µM),relative viability ([1]; first compound 0.01581 µM),relative viability ([2]; first compound 0.08 µM),relative viability ([2]; first compound 0.253 µM),relative viability ([2]; first compound 0.8 µM),relative viability ([2]; first compound 2.53 µM),relative viability ([2]; first compound 8 µM),relative viability ([3]; first compound 0.0005 µM),relative viability ([3]; first compound 0.001581 µM),relative viability ([3]; first compound 0.005 µM),relative viability ([3]; first compound 0.01581 µM),relative viability ([4]; first compound 0.08 µM),relative viability ([4]; first compound 0.253 µM),relative viability ([4]; first compound 0.8 µM),relative viability ([4]; first compound 2.53 µM),relative viability ([4]; first compound 8 µM)
201T,0.572,0.673,0.671,0.535,1.08,1.06,1.07,1,0.655,0.745,0.612,0.794,0.795,0.677,0.725,0.669,0.591,0.57
A549,,,,,,,,,,,,,,0.519,0.694,0.6,0.265,0.0797
A-427,0.83,0.765,0.759,0.529,0.929,1,1.04,0.398,0.593,0.435,0.471,0.503,0.31,0.72,0.846,0.69,0.548,0.546
ABC-1,0.83,0.798,0.823,1.1,,0.569,0.27,0.338,0.213,0.485,0.472,0.704,0.517,1,0.817,0.72,0.393,0.45
BEN,0.779,0.661,0.812,0.824,0.365,0.343,0.22,0.214,0.392,0.276,0.301,0.299,0.287,0.581,0.642,0.57,0.623,0.447
CAL-12T,0.553,0.528,0.609,0.333,0.57,0.516,0.52,0.124,0.138,0.65,0.541,0.719,0.33,0.296,0.575,0.457,0.193,0.185
COR-L23,,,,,0.665,0.919,0.71,0.3,0.372,0.737,0.772,0.814,0.255,0.755,0.926,1.14,0.681,0.233
COR-L 105,,,,,0.757,0.972,0.658,0.551,0.768,0.671,0.748,0.883,0.694,0.453,0.401,0.38,0.366,0.303
Calu-6,,,,,,,,,,,,,,0.861,0.957,1.01,0.585,0.369
ChaGo-K-1,0.834,0.903,0.755,0.3,0.613,0.548,0.652,0.404,0.473,0.673,0.597,0.636,0.471,0.719,0.917,0.791,0.584,0.391
EBC-1,,,,,,,,,,,,,,0.462,0.371,0.528,0.26,0.162
EKVX,0.586,0.676,0.933,0.705,0.863,0.885,1.06,0.702,0.74,0.692,0.738,0.683,0.806,0.436,0.41,0.422,0.357,0.347
EMC-BAC-2,1.09,1.28,1.02,0.413,1.14,1.15,1.27,0.745,0.532,0.393,0.435,0.326,0.202,0.566,0.58,0.585,0.502,0.323
EPLC-272H,0.19,0.271,0.268,0.297,0.259,0.264,0.337,0.106,0.0888,0.243,0.298,0.316,0.365,0.293,0.326,0.328,0.156,0.119
H3255,0.869,1.04,1.03,0.972,1.04,,0.827,0.69,0.731,0.476,0.596,0.587,0.633,0.48,0.533,0.495,0.347,0.331
HARA,0.232,0.522,0.299,0.16,0.51,0.638,1.06,0.483,0.193,0.488,0.56,0.55,0.355,0.416,0.349,0.405,0.248,0.187
HCC-15,1.16,1.33,1.26,1.15,0.289,0.518,0.295,0.298,0.465,0.669,0.807,0.789,0.779,0.702,0.896,0.827,,0.693
HCC-44,1.02,0.967,0.994,1.03,0.975,0.911,1.2,0.458,0.274,0.481,0.608,0.462,0.639,0.569,0.647,0.611,0.526,0.335
HCC-78,0.6,0.626,0.53,0.796,,,,,,0.378,,0.383,0.368,0.233,0.219,0.259,0.173,0.185
HCC-366,0.255,,0.247,0.268,,,,,,0.961,0.907,1.22,1.03,0.128,0.163,0.141,0.113,0.122
HCC-827,0.219,0.23,0.263,0.287,0.772,0.385,0.563,0.334,0.195,0.78,0.865,0.881,0.74,0.944,0.735,1.11,0.687,0.862
HOP-62,0.406,0.423,0.665,0.262,0.858,1.01,0.901,0.95,0.947,0.812,0.935,0.877,0.665,0.643,0.846,0.863,0.467,0.488

Cell Line,relative viability ([1]; first compound 0.0005 µM),relative viability ([1]; first compound 0.001581 µM),relative viability ([1]; first compound 0.005 µM),relative viability ([1]; first compound 0.01581 µM),relative viability ([2]; first compound 0.08 µM),relative viability ([2]; first compound 0.253 µM),relative viability ([2]; first compound 0.8 µM),relative viability ([2]; first compound 2.53 µM),relative viability ([2]; first compound 8 µM),relative viability ([3]; first compound 0.0005 µM),relative viability ([3]; first compound 0.001581 µM),relative viability ([3]; first compound 0.005 µM),relative viability ([3]; first compound 0.01581 µM),relative viability ([4]; first compound 0.08 µM),relative viability ([4]; first compound 0.253 µM),relative viability ([4]; first compound 0.8 µM),relative viability ([4]; first compound 2.53 µM),relative viability ([4]; first compound 8 µM)
IA-LM,,,,,,,,,,,,,,0.443,0.475,0.359,0.409,0.264
LC-2-ad,0.762,0.88,0.79,0.964,0.982,1.13,0.916,0.456,0.42,0.832,1.12,1.06,1.01,0.554,0.309,0.596,0.12,0.0919
LCLC-97TM1,0.209,0.274,0.238,0.195,0.771,0.883,0.72,0.571,0.291,0.523,0.633,0.656,0.517,0.174,0.172,0.218,0.133,0.148
LCLC-103H,0.829,0.829,0.773,0.851,0.843,1.05,1.23,0.701,0.663,0.499,0.48,0.493,0.471,0.462,0.636,0.595,0.403,0.356
LK-2,0.523,0.36,0.199,0.141,0.187,0.198,0.169,0.163,0.197,0.225,0.241,0.18,0.192,0.462,0.637,0.427,0.462,0.304
NCI-H520,,,,,0.225,0.25,0.293,0.271,0.226,0.245,0.222,0.328,0.234,0.286,0.408,0.377,0.191,0.195
NCI-H522,0.808,1.13,0.816,0.538,1.09,1.31,1.32,0.841,1.04,0.612,0.942,0.762,0.667,,,,,
NCI-H661,,,,,0.887,0.956,0.827,0.977,0.862,0.811,0.719,0.74,0.341,0.367,0.456,0.459,0.345,0.271
NCI-H1299,,,,,,,,,,,,,,0.791,0.816,0.874,0.427,0.162
NCI-H1563,,,,,0.542,0.654,0.475,0.485,0.452,0.754,0.749,0.807,0.719,0.678,0.656,0.726,0.594,0.492
NCI-H1623,,,,,0.435,0.483,0.66,0.371,0.424,0.413,0.439,0.466,0.475,,,,,
NCI-H1648,0.649,0.577,0.674,0.653,,,,,,0.231,0.26,0.262,0.244,,,,,
NCI-H1650,,,,,0.185,0.196,0.194,0.184,0.182,0.637,0.655,0.733,0.825,0.645,0.668,0.652,0.148,0.122
NCI-H1703,0.134,0.123,0.155,0.142,,,,,,,,,,0.229,0.207,0.278,0.214,0.187
NCI-H2009,,,,,1.05,1.09,1.04,0.884,0.993,0.599,0.739,0.614,0.381,0.793,0.76,0.892,0.289,0.192
NCI-H2023,,,,,0.807,0.608,0.801,0.41,0.144,0.35,0.458,0.395,0.455,0.239,0.243,0.257,0.0848,0.12
NCI-H2228,,,,,0.145,0.213,0.103,0.0925,0.0961,0.561,0.552,0.915,0.731,0.587,0.222,0.532,0.169,0.187
NCI-H2342,0.508,0.457,0.612,0.532,0.757,0.811,0.819,0.581,0.76,0.674,0.552,0.602,0.613,,,,,
SK-LU-1,,,,,0.192,0.203,0.191,0.151,0.101,0.358,0.335,0.454,0.348,0.46,0.658,0.546,0.277,0.173
SK-MES-1,,,,,0.863,0.858,0.957,0.232,0.137,0.532,0.608,0.734,0.601,0.34,0.325,0.333,0.234,0.195
SW 900,0.647,,0.72,0.654,0.18,0.186,0.177,0.125,0.117,0.42,0.475,0.745,0.463,,,,,
SW 1573,,,,,0.396,0.44,0.5,0.161,0.107,0.564,0.705,0.581,0.455,0.45,0.499,0.543,0.422,0.31
